Results published in patent US20220009906A1, “ISOINDOLIN-1-ONE DERIVATIVES USEFUL AS GRK2 INHIBITORS” (priority 2020, published 2022).

Target: T1, GRK2 (Homo sapiens, UniProt P25098)
T1 sequence (P25098 1-689): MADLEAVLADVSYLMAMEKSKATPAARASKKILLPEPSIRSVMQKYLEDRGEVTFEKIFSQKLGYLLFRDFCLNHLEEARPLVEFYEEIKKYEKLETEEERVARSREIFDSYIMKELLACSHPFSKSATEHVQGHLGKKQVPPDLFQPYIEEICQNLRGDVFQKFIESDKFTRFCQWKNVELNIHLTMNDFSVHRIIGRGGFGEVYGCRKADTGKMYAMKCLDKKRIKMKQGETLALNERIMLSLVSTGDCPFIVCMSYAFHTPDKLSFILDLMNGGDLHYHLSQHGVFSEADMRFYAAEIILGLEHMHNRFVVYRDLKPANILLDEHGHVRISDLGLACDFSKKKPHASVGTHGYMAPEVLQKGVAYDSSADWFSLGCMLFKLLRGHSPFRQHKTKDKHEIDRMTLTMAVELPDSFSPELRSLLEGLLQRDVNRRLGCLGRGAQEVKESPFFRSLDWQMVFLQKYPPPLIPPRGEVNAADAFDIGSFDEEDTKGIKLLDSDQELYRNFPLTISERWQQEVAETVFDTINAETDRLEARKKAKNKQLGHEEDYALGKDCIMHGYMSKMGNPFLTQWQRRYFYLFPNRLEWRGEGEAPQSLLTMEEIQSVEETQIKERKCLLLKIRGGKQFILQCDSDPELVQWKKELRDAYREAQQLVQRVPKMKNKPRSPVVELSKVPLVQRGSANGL
Test: hGRK2 LANCE Ultra In Vitro Assay
Assay type: biochemical
Conditions: Biological Example 1 GRK2 Lancer IC50 (μM), 10 nM GRK2; 30 or 600 μM ATP (not stated which); multiple measurements listed individually
Experimental: hGRK2 LANCE Ultra In Vitro Assay
G-protein coupled receptor kinases (GR Kinases) desensitize activated G-protein coupled receptors (GPCRs), by phosphorylation of cytoplasmic loops or carboxyl-terminal tails of GPCRs. GRK2 is one of the 6 different GR kinases and is implicated in heart failure and diabetes.
This assay is sensitive and requires as low as 10 nM enzyme, in a total volume of 10 μL. In addition, the ATP concentration can be varied over a broad range, without interfering with the assay or changing the assay condition. […] Testing inhibitors routinely at both high and low ATP concentrations also enables identification of potential non-ATP competitive inhibitors.
Paroxetine was used as the reference compound in this assay.
Test compounds were dissolved in DMSO at 1 mM and were 3-fold serial diluted. The compound DMSO solutions were then added (100 nL) into a plate well using an acoustic dispenser. To each well was then added 20 nM GRK2 (5 μL) in assay buffer (20 mM HEPES, pH 7.5, 10 mM MgCl2, 0.001% Tween-20®). The plate was sealed and centrifuged at 1000 rpm for 1 min. The plate and wells containing a mixture of GRK2 and test compound were incubated at ambient temperature for 30 min (prior to initializing the enzymatic reaction).
Enzyme reactions were initiated by the addition of 4.9 μL Substrates/Eu-Ab mix to each well. […] Final concentrations of reagents in the assays were as follows: 20 mM HEPES, pH 7.5; 10 mM MgCl2; 0.001% Tween-20® (w/v); 30 or 600 μM ATP; 200 nM ULight-peptide; 4 nM Eu-Ab; 10 nM GRK2; and 1% DMSO.
The plates were sealed and centrifuged at 1000 rpm for 1 min. For reactions at low ATP concentration (30 μM), reaction mixtures were incubated at ambient temperature for 120 min. For reactions at high ATP concentration (600 μM), reaction mixtures were incubated at ambient temperature for 60 min.
The enzyme reactions were quenched by addition of 10 μL of 12 mM EDTA in 1× LANCE detection solution to each well. The plates were then incubated at ambient temperature for 30 min. Time-resolved fluorescence signal of reactions were read on an EnVision or PHERAstar plate reader with the following parameters: Excitation wavelength=337 nm; emission wavelength (donor)=620 nm; emission wavelength (acceptor)=665 nm.
The raw HTRF data were converted to % active as follows:
% active=(sample−NC)/(PC−NC)*100
where NC is the mean of negative control (reactions without GRK2), and PC is the mean of positive control (reactions with GRK2 but without inhibitor). IC50 values were determined from a 4-parameter fit, using the following equation:
Y=Bottom+(Top−Bottom)/(1+10^((Log IC50−X)*Hill slope))
where X=log10 of the compound concentration.

| Structure (SMILES) | IC50 [µM] |
| --- | --- |
| COc1cccc([C@@H](C)N2Cc3ccc(-n4cn[nH]c4=O)cc3C2=O)c1 [Compound 40, (R)-2-(1-(3-methoxyphenyl)ethyl)-6-(5-oxo-1,5-dihydro-4H-1,2,4-triazol-4-yl)isoindolin-1-one] | 0.115 |
| O=C(O)COc1cccc(CN2Cc3ccc(-c4ccnc5[nH]ccc45)cc3C2=O)c1 [Compound 57] | 2.56 |
| COc1cccc([C@@H](C)N2C(=O)c3cc(-c4cn[nH]c4)ccc3[C@H]2CC(=O)O)c1 (single isomer, unassigned) [Compound 98] | 0.106 |
| O=C(O)COc1cccc(CN2Cc3ccc(-c4cn[nH]c4)cc3C2=O)c1 [Compound 55] | 0.011 |
| COc1cccc(C(CO)N2Cc3c(cc(-c4cn[nH]c4)cc3-c3ccncc3)C2=O)c1 (stereo not drawn) [Compound 133, 2-(2-Hydroxy-1-(3-methoxyphenyl)ethyl)-6-(1H-pyrazol-4-yl)-4-(pyridin-4-yl)isoindolin-1-one] | 0.021 |
| COc1cccc(CN2C(=O)c3cc(-c4cn[nH]c4)ccc3C2Cc2nn[nH]n2)c1 (stereo not drawn) [Compound 93, 3-((2H-tetrazol-5-yl)methyl)-2-(3-methoxybenzyl)-6-(1H-pyrazol-4-yl)isoindolin-1-one] | 0.02 |
| CCOc1cccc([C@@H](CO)N2Cc3ccc(-c4cn[nH]c4)cc3C2=O)c1 [Compound 114] | 0.006 |
| CNC(=O)c1nccc(-c2ccc3c(c2)C(=O)N(Cc2ccc(OC)cc2)C3)n1 [Compound 47, 4-(2-(4-methoxybenzyl)-3-oxoisoindolin-5-yl)-N-methylpyrimidine-2-carboxamide] | ~10 |
| COc1cccc(C(CO)N2Cc3c(cc(-c4cn[nH]c4)cc3-c3cccc(O)c3)C2=O)c1 (stereo not drawn) [Compound 143, 2-(2-hydroxy-1-(3-methoxyphenyl)ethyl)-4-(3-hydroxyphenyl)-6-(1H-pyrazol-4-yl)isoindolin-1-one] | 0.005 |
| COc1cccc(C(CN(C)C)N2Cc3ccc(-c4cn[nH]c4)cc3C2=O)c1 (stereo not drawn) [Compound 80, 2-(2-(dimethylamino)-1-(3-methoxyphenyl)ethyl)-6-(1H-pyrazol-4-yl)isoindolin-1-one] | 0.044 |
| COc1cccc([C@@H](C)N2Cc3c(cc(-c4cn[nH]c4)cc3-c3ccc(C(C)(C)O)nc3)C2=O)c1 [Compound 141, (R)-4-(6-(2-hydroxypropan-2-yl)pyridin-3-yl)-2-(1-(3-methoxyphenyl)ethyl)-6-(1H-pyrazol-4-yl)isoindolin-1-one] | 0.02 |
| COc1cccc([C@@H](C)N2Cc3c(cc(-c4cn[nH]c4)cc3-c3cccc(O)c3)C2=O)c1 [Compound 139, (R)-4-(3-hydroxyphenyl)-2-(1-(3-methoxyphenyl)ethyl)-6-(1H-pyrazol-4-yl)isoindolin-1-one] | 0.033 |
| COc1ccc(OC)c(C(CO)N2Cc3ccc(-c4cn[nH]c4)cc3C2=O)c1 (stereo not drawn) [Compound 52, 2-(1-(2,5-dimethoxyphenyl)-2-hydroxyethyl)-6-(1H-pyrazol-4-yl)isoindolin-1-one] | 0.742 |
| COc1cncc(-c2cc(-c3cn[nH]c3)cc3c2CN([C@H](C)c2cccc(OC)c2)C3=O)c1 [Compound 126, (R)-2-(1-(3-methoxyphenyl)ethyl)-4-(5-methoxypyridin-3-yl)-6-(1H-pyrazol-4-yl)isoindolin-1-one] | 0.024 |
| COc1cccc(C(CO)N2Cc3c(cc(-c4cn[nH]c4)cc3-c3cncc(F)c3)C2=O)c1 (stereo not drawn) [Compound 152, 4-(5-fluoropyridin-3-yl)-2-(2-hydroxy-1-(3-methoxyphenyl)ethyl)-6-(1H-pyrazol-4-yl)isoindolin-1-one] | 0.017 |
| COc1cccc(CN2C(=O)c3cc(-c4cn[nH]c4)ccc3C23CCC(OC)C3)c1 (stereo not drawn) [Compound 170] | 0.006 |
| COc1cccc(CN2C(=O)c3cc(-c4cn[nH]c4)ccc3C23CCC(C(N)=O)C3)c1 (stereo not drawn) [Compound 108, 2′-(3-methoxybenzyl)-3′-oxo-5′-(1H-pyrazol-4-yl)spiro[cyclopentane-1,1′-isoindoline]-3-carboxamide] | 0.004 |

| Structure (SMILES) | IC50 [µM] |
| --- | --- |
| CC(C)NC(=O)c1cccc(CN2Cc3cc(F)c(-c4cn[nH]c4)cc3C2=O)c1 [Compound 166] | 0.005 |
| O=C1c2cc(-c3cn[nH]c3)ccc2CN1Cc1cccc(Oc2ccccc2)c1 [Compound 103] | 0.033 |
| CCOc1cccc([C@@H](C)N2Cc3ccc(-c4ccnc5[nH]ccc45)cc3C2=O)c1 [Compound 167] | > 20 |
| COc1cccc(CN2Cc3ccc(-c4ccnc5[nH]ccc45)cc3C2=O)c1 [Compound 50] | 0.334 |
| COc1cccc([C@@H](C)N2C(=O)c3cc(-c4cn[nH]c4)ccc3C23CCCC3)c1 [Compound 122, (R)-2′-(1-(3-methoxyphenyl)ethyl)-5′-(1H-pyrazol-4-yl)spiro[cyclopentane-1,1′-isoindolin]-3′-one] | 1.18 |
| COc1cccc([C@@H](C)N2Cc3c(cc(-c4cn[nH]c4)cc3-c3cc(C)nc(C)c3)C2=O)c1 [Compound 132, (R)-4-(2,6-dimethylpyridin-4-yl)-2-(1-(3-methoxyphenyl)ethyl)-6-(1H-pyrazol-4-yl)isoindolin-1-one] | 0.005 |
| COc1cccc(C(CO)N2C(=O)c3cc(-c4cn[nH]c4)ccc3C23CCCC3)c1 (stereo not drawn) [Compound 79, 2′-(2-hydroxy-1-(3-methoxyphenyl)ethyl)-5′-(1H-pyrazol-4-yl)spiro[cyclopentane-1,1′-isoindolin]-3′-one] | 0.03 |
| COc1cccc(C(CO)N2C(=O)c3cc(-c4cn[nH]c4)ccc3C23CC=CC3)c1 (stereo not drawn) [Compound 78, 2′-(2-hydroxy-1-(3-methoxyphenyl)ethyl)-5′-(1H-pyrazol-4-yl)spiro[cyclopentane-1,1′-isoindolin]-3-en-3′-one] | 0.06 |
| CC(=O)Oc1cccc(CN2Cc3ccc(-c4cn[nH]c4)cc3C2=O)c1 [Compound 136] | 0.014 |
| COc1cccc(C(COCC(=O)O)N2Cc3ccc(-c4cn[nH]c4)cc3C2=O)c1 (stereo not drawn) [Compound 60, 2-(2-(3-methoxyphenyl)-2-(1-oxo-6-(1H-pyrazol-4-yl)isoindolin-2-yl)ethoxy)acetic acid] | 0.017 |
| COc1cccc([C@@H](C)N2Cc3c(cc(-c4cn[nH]c4)cc3N3CCN(C)CC3)C2=O)c1 [Compound 156, (R)-2-(1-(3-methoxyphenyl)ethyl)-4-(4-methylpiperazin-1-yl)-6-(1H-pyrazol-4-yl)isoindolin-1-one] | 0.011 |
| COc1cccc(CN2Cc3cc(F)c(-c4cn[nH]c4)cc3C2=O)c1 [Compound 35, 5-fluoro-2-[(3-methoxyphenyl)methyl]-6-(1H-pyrazol-4-yl)isoindolin-1-one] | 0.005 |
| COc1cccc(C(CO)N2Cc3ccc(-c4cn[nH]c4)cc3C2=O)c1 (racemic) [Compound 38, 2-(2-hydroxy-1-(3-methoxyphenyl)ethyl)-6-(1H-pyrazol-4-yl)isoindolin-1-one] | 0.006 |
| COc1cccc(CN2C(=O)c3cc(-c4ccnc(N)n4)ccc3C2CC#N)c1 (stereo not drawn) [Compound 33] | 0.098 |
| COc1cccc([C@@H](C)N2C(=O)c3cc(-c4cn[nH]c4)ccc3C23CCC(O)C3)c1 (mixture of isomers) [Compound 173] | 0.092 |
| COc1cccc(C(COCCO)N2Cc3ccc(-c4cn[nH]c4)cc3C2=O)c1 (stereo not drawn) [Compound 63, 2-(2-(2-Hydroxyethoxy)-1-(3-methoxyphenyl)ethyl)-6-(1H-pyrazol-4-yl)isoindolin-1-one] | 0.008 |
